≈ marks a conversion by molar mass, not a printed value. Calls of active or inactive are those of the source. The calls are words filed in the database; no cut-off is given here.
Key:
Staphylococcus aureus [1] = assay: Antibacterial activity against methicillin-resistant Staphylococcus aureus ATCC 43300 assessed as time delay in bacterial growth at MIC after 10 mins; type: functional
Staphylococcus aureus [2] = assay: Potency index, ratio of cefixime MIC to test compound MIC for methicillin-resistant Staphylococcus aureus ATCC 43300; type: functional
Staphylococcus aureus [3] = assay: Antibacterial activity against methicillin-resistant Staphylococcus aureus ATCC 43300 assessed as reduction in bacterial viability at 5 to 20 ug/ml measured after 24 hrs by MTT assay; type: functional
Staphylococcus aureus [4] = assay: Antibacterial activity against methicillin-resistant Staphylococcus aureus ATCC 43300 assessed as delay in bacterial growth at 4 times MIC after 10 mins; type: functional, organism-based
Streptococcus mutans [5] = assay: Antibacterial activity against Streptococcus mutans ATCC 25175 assessed as reduction in acid production at 0.5 times MIC and MIC measured up to 24 hrs; type: functional, organism-based
Streptococcus mutans [6] = assay: Antibacterial activity against Streptococcus mutans ATCC 25175 assessed as time delay in bacterial growth at MIC, 2 times MIC and 4 times MIC; type: functional
Streptococcus mutans [7] = assay: Antibacterial activity against Streptococcus mutans ATCC 25175 measured after overnight incubation by two-fold serial dilution method; type: functional
Streptococcus mutans [8] = assay: Antibiofilm activity against Streptococcus mutans ATCC 25175 assessed as down-regulation of gtfC gene expression by semi-quantitative PCR analysis; type: functional, organism-based
Staphylococcus aureus [9] = assay: Antibiofilm activity against methicillin-resistant Staphylococcus aureus ATCC 43300 measured after overnight incubation by crystal violet-staining based assay; type: functional
Staphylococcus aureus [10] = assay: Potency index, ratio of gentamycin sulphate MIC to test compound MIC for methicillin-resistant Staphylococcus aureus ATCC 43300; type: functional
Streptococcus mutans [11] = assay: Antibiofilm activity against Streptococcus mutans ATCC 25175 assessed as down-regulation of luxS gene expression by semi-quantitative PCR analysis; type: functional, organism-based
Streptococcus mutans [12] = assay: Bactericidal activity against Streptococcus mutans ATCC 25175 measured after overnight incubation; type: functional
Streptococcus mutans [13] = assay: Potency index, ratio of 6 amino penicillinic acid MIC to test compound MIC for Streptococcus mutans ATCC 25175; type: functional
Streptococcus mutans [14] = assay: Potency index, ratio of cefixime MIC to test compound MIC for Streptococcus mutans ATCC 25175; type: functional
Staphylococcus aureus [15] = assay: Antibacterial activity against methicillin-resistant Staphylococcus aureus ATCC 43300 assessed as time delay in bacterial growth at 2 times MIC after 10 mins; type: functional
Staphylococcus aureus [16] = assay: Bactericidal activity against methicillin-resistant Staphylococcus aureus ATCC 43300 measured after overnight incubation; type: functional
Staphylococcus aureus [17] = assay: Antibacterial activity against methicillin-resistant Staphylococcus aureus ATCC 43300 assessed as reduction in acid production at 0.5 times MIC and MIC measured up to 24 hrs; type: functional, organism-based
Streptococcus mutans [18] = assay: Antibacterial activity against Streptococcus mutans ATCC 25175 measured assessed as reduction in bacterial viability at 5 to 15 ug/ml after 24 hrs by MTT assay; type: functional
Staphylococcus aureus [19] = assay: Antibacterial activity against methicillin-resistant Staphylococcus aureus ATCC 43300 measured after overnight incubation by two-fold serial dilution method; type: functional
Streptococcus mutans [20] = assay: Antibiofilm activity against Streptococcus mutans ATCC 25175 assessed as disruption of biofilm at 10 to 12 ug/ml by fluorescence microscopy; type: functional, organism-based
Staphylococcus aureus [21] = assay: Antibacterial activity against methicillin-resistant Staphylococcus aureus ATCC 43300 assessed as log reduction in bacterial count at 5 ug/ml measured after 24 hrs; type: functional
Staphylococcus aureus [22] = assay: Antibiofilm activity against methicillin-resistant Staphylococcus aureus ATCC 43300 assessed as down-regulation of IcaA gene expression by semi-quantitative PCR analysis; type: functional, organism-based
Streptococcus mutans [23] = assay: Bacteriostatic activity against Streptococcus mutans ATCC 25175 assessed as log reduction in colony forming units at 7.5 to 10 ug/ml after 24 hrs; type: functional, organism-based
Staphylococcus aureus [24] = assay: Bacteriostatic activity against methicillin-resistant Staphylococcus aureus ATCC 43300 assessed as log reduction in colony forming units at 12.5 to 15 ug/ml after 24 hrs; type: functional, organism-based
Streptococcus mutans [25] = assay: Antibacterial activity against Streptococcus mutans ATCC 25175 measured assessed as inhibition of colony formation at 5 to 15 ug/ml after 24 hrs; type: functional, organism-based
Klebsiella pneumoniae [26] = assay: Antibacterial activity against Klebsiella pneumoniae ATCC 13882 measured after overnight incubation by two-fold serial dilution method; type: functional
Streptococcus mutans [27] = assay: Antibiofilm activity against Streptococcus mutans ATCC 25175 measured after overnight incubation by crystal violet-staining based assay; type: functional
Staphylococcus aureus [28] = assay: Antibacterial activity against methicillin-resistant Staphylococcus aureus ATCC 43300 assessed as inhibition of colony formation at 5 to 20 ug/ml measured after 24 hrs; type: functional, organism-based
Staphylococcus aureus [29] = assay: Potency index, ratio of 6 amino penicillinic acid MIC to test compound MIC for methicillin-resistant Staphylococcus aureus ATCC 43300; type: functional
Staphylococcus aureus [30] = assay: Antibiofilm activity against methicillin-resistant Staphylococcus aureus ATCC 43300 assessed as formation of oviod cells at MBIC concentration by uranyl acetate-staining based electron microscopy; type: functional, organism-based
Streptococcus mutans [31] = assay: Antibiofilm activity against Streptococcus mutans ATCC 25175 assessed as down-regulation of gtfB gene expression by semi-quantitative PCR analysis; type: functional, organism-based
Staphylococcus aureus [32] = assay: Antibiofilm activity against methicillin-resistant Staphylococcus aureus ATCC 43300 assessed as formation of broken chains at MBIC concentration by uranyl acetate-staining based electron microscopy; type: functional, organism-based
Streptococcus mutans [33] = assay: Antibacterial activity against Streptococcus mutans ATCC 25175 assessed as log reduction in bacterial count at 10 ug/ml measured after 24 hrs relative to control; type: functional
Staphylococcus aureus [34] = assay: Antibiofilm activity against methicillin-resistant Staphylococcus aureus ATCC 43300 assessed as disruption of biofilm at 10 to 12 ug/ml by fluorescence microscopy; type: functional, organism-based
Proteus mirabilis [35] = assay: Antibiofilm activity against Proteus mirabilis ATCC 12453 measured after overnight incubation by crystal violet-staining based assay; type: functional
Proteus mirabilis [36] = assay: Antibiofilm activity against Proteus mirabilis ATCC 12453 at >= 50 ug/ml measured after overnight incubation by crystal violet-staining based assay; type: functional, organism-based
Klebsiella pneumoniae [37] = assay: Antibiofilm activity against Klebsiella pneumoniae ATCC 13882 at >= 50 ug/ml measured after overnight incubation by crystal violet-staining based assay; type: functional, organism-based
Proteus mirabilis [38] = assay: Antibacterial activity against Proteus mirabilis ATCC 12453 measured after overnight incubation by two-fold serial dilution method; type: functional
Klebsiella pneumoniae [39] = assay: Antibiofilm activity against Klebsiella pneumoniae ATCC 13882 measured after overnight incubation by crystal violet-staining based assay; type: functional

Structure (SMILES): CC1=CCC[C@@H]2[C@@](C)(CCC3=CC(=O)OC3Nc3ccccc3)[C@H](C)CC[C@@]12C (mixture of isomers)
- Time (Staphylococcus aureus [1]): 1 to 2 h
- Ratio (Staphylococcus aureus [2]): 5
- Activity (Staphylococcus aureus [3]): <=90%
- Activity (Staphylococcus aureus [4]): Active
- Activity (Streptococcus mutans [5]): Active
- Time (Streptococcus mutans [6]): >=8 hr
- MIC (Streptococcus mutans [7]): 15 µg/mL
- Activity (Streptococcus mutans [8]): Active
- Activity (Staphylococcus aureus [9]): 96.9%
- MBIC (Staphylococcus aureus [9]): 10 µg/mL
- Ratio (Staphylococcus aureus [10]): 5
- Activity (Streptococcus mutans [11]): Active
- MBC (Streptococcus mutans [12]): inactive
- Ratio (Streptococcus mutans [13]): 5
- Ratio (Streptococcus mutans [14]): 5
- Time (Staphylococcus aureus [15]): 1 to 2 h
- MBC (Staphylococcus aureus [16]): inactive
- Activity (Staphylococcus aureus [17]): Active
- Activity (Streptococcus mutans [18]): <=90%
- MIC (Staphylococcus aureus [19]): 10 µg/mL
- Activity (Streptococcus mutans [20]): Active
- Activity (Staphylococcus aureus [21]): 9.5 log10CFU/ml
- Activity (Staphylococcus aureus [22]): inactive
- Activity (Streptococcus mutans [23]): Active
- Activity (Staphylococcus aureus [24]): Active
- Activity (Streptococcus mutans [25]): Active
- MIC (Klebsiella pneumoniae [26]): inactive
- Activity (Streptococcus mutans [27]): 95.88%
- MBIC (Streptococcus mutans [27]): 15 µg/mL
- Activity (Staphylococcus aureus [28]): Active
- Ratio (Staphylococcus aureus [29]): 5
- Activity (Staphylococcus aureus [30]): Active
- Activity (Streptococcus mutans [31]): Active
- Activity (Staphylococcus aureus [32]): Active
- Activity (Streptococcus mutans [33]): 7.5 - 8 log10CFU/ml
- Activity (Staphylococcus aureus [34]): Active

Structure (SMILES): CC1=CCC[C@@H]2[C@@](C)(CCC3=CC(=O)OC3Nc3ccccc3F)[C@H](C)CC[C@@]12C (mixture of isomers)
- Activity (Proteus mirabilis [35]): 62.5%
- MBIC (Proteus mirabilis [35]): 90 µg/mL
- MIC (Streptococcus mutans [7]): 50 µg/mL
- Activity (Staphylococcus aureus [9]): 76.25%
- Activity (Proteus mirabilis [36]): Active
- Activity (Klebsiella pneumoniae [37]): Active
- MIC (Proteus mirabilis [38]): 125 µg/mL
- MIC (Staphylococcus aureus [19]): 45 µg/mL
- MIC (Klebsiella pneumoniae [26]): inactive
- Activity (Streptococcus mutans [27]): 69.05%
- MBIC (Streptococcus mutans [27]): 45 µg/mL

Structure (SMILES): CC1=CCC[C@@H]2[C@@](C)(CCC3=CC(=O)OC3Nc3ccc(-c4ccc(NC5OC(=O)C=C5CC[C@@]5(C)[C@H](C)CC[C@@]6(C)C(C)=CCC[C@H]56)c(C)c4)cc3C)[C@H](C)CC[C@@]12C (mixture of isomers)
- MIC (Streptococcus mutans [7]): inactive

Structure (SMILES): CC1=CCC[C@@H]2[C@@](C)(CCC3=CC(=O)OC3Nc3ccc(F)cc3)[C@H](C)CC[C@@]12C (mixture of isomers)
- MIC (Streptococcus mutans [7]): inactive

Structure (SMILES): C=CC1=C(C(=O)O)N2C(=O)[C@@H](NC(=O)/C(=N\OCC(=O)O)c3csc(N)n3)[C@H]2SC1 [CEFIXIME]
- Activity (Proteus mirabilis [35]): 72.6%
- MBIC (Proteus mirabilis [35]): 40 µg/mL
- MIC (Streptococcus mutans [7]): 40 µg/mL (≈ 88.2 µM)
- Activity (Staphylococcus aureus [9]): 73.5%
- MBIC (Staphylococcus aureus [9]): 82 µg/mL
- MIC (Proteus mirabilis [38]): 40 µg/mL (≈ 88.2 µM)
- MIC (Staphylococcus aureus [19]): 82 µg/mL (≈ 181 µM)
- MIC (Klebsiella pneumoniae [26]): 40 µg/mL (≈ 88.2 µM)
- Activity (Streptococcus mutans [27]): 96.06%
- MBIC (Streptococcus mutans [27]): 40 µg/mL
- Activity (Klebsiella pneumoniae [39]): 94.78%
- MBIC (Klebsiella pneumoniae [39]): 40 µg/mL

Reference: ChEMBL document CHEMBL4190260, “Antibiofilm potential of 16-oxo-cleroda-3, 13(14) E-diene-15 oic acid and its five new γ-amino γ-lactone derivatives against methicillin resistant Staphylococcus aureus and Streptococcus mutans” (2017)
